Measured values as given in ChEMBL document CHEMBL3585326, “Discovery of potent carbonic anhydrase and acetylcholine esterase inhibitors: novel sulfamoylcarbamates and sulfamides derived from acetophenones” (Bioorg Med Chem, 2015).
pIC50, pKi: −log10 of the molar value.

Biological target: Acetylcholinesterase (Homo sapiens, UniProt P22303)
Sequence (P22303 whole entry): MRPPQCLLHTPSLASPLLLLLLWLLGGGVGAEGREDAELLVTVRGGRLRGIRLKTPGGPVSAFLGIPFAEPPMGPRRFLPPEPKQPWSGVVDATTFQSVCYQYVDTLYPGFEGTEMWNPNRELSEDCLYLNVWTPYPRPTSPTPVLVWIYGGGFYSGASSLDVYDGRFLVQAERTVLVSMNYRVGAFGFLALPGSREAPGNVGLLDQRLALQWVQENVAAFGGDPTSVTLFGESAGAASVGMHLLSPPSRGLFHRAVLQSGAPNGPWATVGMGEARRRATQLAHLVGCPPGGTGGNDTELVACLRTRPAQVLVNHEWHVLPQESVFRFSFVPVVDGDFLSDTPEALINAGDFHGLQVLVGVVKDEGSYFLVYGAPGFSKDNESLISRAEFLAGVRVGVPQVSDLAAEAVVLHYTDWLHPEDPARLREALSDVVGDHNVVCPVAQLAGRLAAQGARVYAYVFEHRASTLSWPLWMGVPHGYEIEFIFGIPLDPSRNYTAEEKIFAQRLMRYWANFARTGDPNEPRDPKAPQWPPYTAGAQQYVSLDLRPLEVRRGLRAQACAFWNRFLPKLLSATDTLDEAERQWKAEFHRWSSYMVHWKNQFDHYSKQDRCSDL
Description: Inhibition of acetylcholinesterase (unknown origin) assessed as AChI hydrolysis using AChI and DTNB as substrate by Ellman's method

Structure (SMILES): COc1ccc(C(C)NS(=O)(=O)NC(=O)OCc2ccccc2)cc1 (stereo not given)
- pIC50: 10.57
- pKi: 11.35

Structure (SMILES): COc1cccc(OC)c1C(C)NS(N)(=O)=O (stereo not given)
- pIC50: 10.57
- pKi: 11.09

Structure (SMILES): COc1ccc(OC)c(C(C)NS(N)(=O)=O)c1 (stereo not given)
- pIC50: 10.57
- pKi: 11.25

Structure (SMILES): COc1ccccc1C(C)NS(=O)(=O)NC(=O)OCc1ccccc1 (stereo not given)
- pIC50: 10.57
- pKi: 11.25

Structure (SMILES): COc1ccc(C(C)NS(N)(=O)=O)cc1OC (stereo not given)
- pIC50: 10.57
- pKi: 11.31

Structure (SMILES): COc1ccccc1C(C)NS(N)(=O)=O (stereo not given)
- pIC50: 10.57
- pKi: 10.42

Structure (SMILES): COc1cccc(OC)c1C(C)NS(=O)(=O)NC(=O)OCc1ccccc1 (stereo not given)
- pIC50: 10.57
- pKi: 10.98

Structure (SMILES): COc1ccc(C(C)NS(=O)(=O)NC(=O)OCc2ccccc2)cc1OC (stereo not given)
- pIC50: 10.57
- pKi: 11.29

Structure (SMILES): COc1ccc(C(C)NS(N)(=O)=O)cc1 (stereo not given)
- pIC50: 10.57
- pKi: 11.20

Structure (SMILES): COc1ccc(OC)c(C(C)NS(=O)(=O)NC(=O)OCc2ccccc2)c1 (stereo not given)
- pIC50: 10.57
- pKi: 10.64
